According to patent publication US9120780B2, “Indole or indazole derivative or salt thereof” (TAIHO PHARMACEUTICAL CO., LTD., priority 2011, dated 2015):

Key:
[1] = target: human HSP90 alpha protein (N-terminal, amino acids 2-236) (Homo sapiens (Human), UniProt P07900); assay: Measurement of HSP90-binding activity (AlphaScreen competitive assay, biotin-labeled geldanamycin); details: inhibition of biotin-labeled geldanamycin binding to purified HSP90; read-out: HSP-binding activity IC50
Description: First, a solution of purified HSP90 was prepared as follows. […] The pET-HSP90N was introduced into Escherichia coli cells (BL21 (DE3), Stratagene Inc.), and then the Escherichia coli cells were cultured in the presence of 0.5 mM isopropyl-beta-D-thiogalactopyranoside (Sigma-Aldrich Corp.) at 37° C. for 4 hours. The Escherichia coli cells were collected, suspended in a lysis buffer (50 mM Tris-HCl (pH 7.5), 200 mM NaCl), and sonicated. The sonicated cell solution was centrifuged (40,000×g, 20 minutes) to obtain supernatant as a crude extract. The crude extract was fractionated by Ni Sepharose High Performance (GE Healthcare Japan Corporation) chromatography and HiLoad 26/60 Superdex 75 pg (GE Healthcare Japan Corporation), and the fraction in which HSP90 protein was concentrated was prepared so as to be a 50 mM Tris-HCl (pH 7.5)/20% glycerol solution as a purified HSP90 solution. The purified HSP90 solution was divided and stored at −80° C. until use.
The HSP90-binding activity was measured by an AlphaScreen competitive assay system. […] After reaction at room temperature for 2 hours, biotin-labeled geldanamycin was added to each reaction solution in an amount of 40 nM, followed by reaction for further 1 hour. […] After reaction in a dark place at room temperature for 1 hour, the fluorescence intensity in each well was measured with a multilabel plate reader, EnVision (Perkin Elmer, Inc.). The inhibition rate (%) of biotin-labeled geldanamycin binding by a compound of the present invention was determined by the following equation using the fluorescence signal of a test substance-free group (control) as a control. […] Inhibition rate (%)=(C−T)/C×100 T: signal in a well to which a test substance was added C: signal in a well to which no test substance was added

[2] = tested on: Human gastric cancer cells (NCI-N87); assay: Antitumor effect in subcutaneous transplantation model of human gastric cancer cell line NCI-N87; format: in vivo, nude mice; details: for anti-tumor effect versus comparative compounds 6 and 7 at the same dose (RTV on day 15): 2 mg/kg/day oral for all compounds, Student-t test; for inhibition of tumor growth (relative tumor volume, FIG. 1): 2 mg/kg/day orally once per day for 14 days, nude mice, NCI-N87; for anti-tumor effect versus comparative compounds 6 and 7 at increased dose (RTV): Examples at 2 mg/kg/day oral, comparative compounds 6 and 7 at 10 mg/kg/day
Description: Human gastric cancer cells (NCI-N87) (obtained from ATCC) were subcutaneously transplanted in nude mice, and at the time when the tumor volume of the nude mice in which the cancer cells had been survived became approximately 140 to 210 mm^3, stratified randomization was performed so that the average tumor volume of each group (6 animals were assigned to one group (grouping: on day 0)) became uniform. The compounds 1, 6, and 9 of the present invention and the comparative compounds 6 (the compound of Example 21 in WO 2010/106290) and 7 (the compound of Example 1 in WO 2010/106290) were orally administered daily once per day from day 1 for 14 days. Note that the comparative compounds were synthesized according to the method described in WO 2010/106290 (Table 22).
The doses of 2 mg/kg/day and 10 mg/kg/day were used for the comparative compounds 6 and 7, and the dose of 2 mg/kg/day was used for the compounds of Examples of 1, 6, and 9 of the present invention.
In order to compare the transition over time of the tumor growth in the administration of each test compound, the relative tumor volume (RTV) was calculated according to the following equation when the tumor volume on the grouping day was defined as 1 for the growth rate of tumor, and the transition of the average value of the RTV of each individual was shown in FIG. 1. RTV=(Tumor volume on tumor volume measurement day)/(Tumor volume when grouped) (Mathematical Formula 1)

SK-BR-3 cells = assay: Measurement of cell growth inhibition (crystal violet staining); format: cell-based; details: Homo sapiens, 72 hours culture with test substance
Description: Cell growth was measured by a crystal violet staining method. […] The cells were cultured in a 5% CO2 incubator at 37° C. for 24 hours, and then test substances were added to the plate, followed by culturing for further 72 hours. […] The plate was left to stand at room temperature for 20 minutes for staining the cells. The plate was washed with water and dried, and 100 μL of a mixed solution of 0.05 M NaH2PO4 and ethanol (mixture in equal amounts) was added to each well. The absorbance at 540 nm was measured with a microplate reader (MTP-450, Corona Electric Co., Ltd.) as an index of the number of cells in each well. The inhibition rate (%) of cell growth by a compound of the present invention was determined by the following equation using the absorbance of a drug-untreated group (control) as a control. […] Inhibition rate (%)=(C−T)/C×100 T: absorbance in a well to which a test substance was added C: absorbance in a well to which no test substance was added

SMILES | IC50 [1] | IC50 (SK-BR-3 cells) | anti-tumor effect versus comparative compounds 6 and 7 at the same dose (RTV on day 15) [2] | inhibition of tumor growth (relative tumor volume, FIG. 1) [2] | anti-tumor effect versus comparative compounds 6 and 7 at increased dose (RTV) [2]
CC(C)c1nn(-c2ccc(C(N)=O)c(NC(C)(C)C)c2)c2cccc(-n3cnc(-c4cccnc4)c3)c12 [Example 1, 2-(Tert-butylamino)-4-(3-isopropyl-4-(4-(pyridin-3-yl)-1H-imidazol-1-yl)-1H-indazol-1-yl)benzamide] | 170 nM | 20 nM | significantly stronger anti-tumor effects than the comparative compounds 6 and 7 | inhibited the tumor growth within one week from the start of the administration | significantly stronger anti-tumor effect than any of the comparative compounds 6 and 7
CCc1cc(C(N)=O)ccc1-n1nc(C(C)C)c2c(-n3cnc(-c4cnn(C)c4)c3)cccc21 [Example 6, 3-Ethyl-4-(3-isopropyl-4-(4-(1-methyl-1H-pyrazol-4-yl)-1H-imidazol-1-yl)-1H-indazol-1-yl)benzamide] | 100 nM | 30 nM | significantly stronger anti-tumor effects than the comparative compounds 6 and 7 | inhibited the tumor growth within one week from the start of the administration | significantly stronger anti-tumor effect than any of the comparative compounds 6 and 7
CC(C)c1nn(-c2ccc(C(N)=O)c(NC(C)(C)C)c2)c2cccc(-n3cnc(-c4cnn(C)c4)c3)c12 [Example 9, 2-(Tert-butylamino)-4-(3-isopropyl-4-(4-(1-methyl-1H-pyrazol-4-yl)-1H-imidazol-1-yl)-1H-indazol-1-yl)benzamide] | 260 nM | 10 nM | significantly stronger anti-tumor effects than the comparative compounds 6 and 7 | inhibited the tumor growth within one week from the start of the administration | significantly stronger anti-tumor effect than any of the comparative compounds 6 and 7

Further lines, with some results ahead:

IC50 [1] | IC50 (SK-BR-3 cells) | SMILES | anti-tumor effect versus comparative compounds 6 and 7 at the same dose (RTV on day 15) [2] | inhibition of tumor growth (relative tumor volume, FIG. 1) [2] | anti-tumor effect versus comparative compounds 6 and 7 at increased dose (RTV) [2]
260 nM | 10 nM | CCc1cn(-c2ccc(C(N)=O)c(NC(C)(C)C)c2)c2cccc(-n3cnc(-c4cnn(C)c4)c3)c12 [Example 48, 2-(Tert-butylamino)-4-{3-ethyl-4-(4-(1-methyl-1H-pyrazolo-4-yl)-1H-imidazolo-1-yl)-1H-indol-1-yl}benzamide] |  |  | 
120 nM | 30 nM | CCCc1cn(-c2ccc(C(N)=O)cc2CC)c2cccc(-n3cnc(-c4cnn(C)c4)c3)c12 [Example 49, 3-Ethyl-4-{4-(4-(1-methyl-1H-pyrazolo-4-yl)-3-propyl-1H-imidazolo-1-yl)-1H-indol-1-yl}benzamide] |  |  | 
160 nM | 60 nM | CCc1cc(C(N)=O)ccc1-n1cc(C(C)C)c2c(-n3cnc(-c4cnn(C)c4)c3)cccc21 [Example 51, 3-Ethyl-4-{3-isopropyl-4-(4-(1-methyl-1H-pyrazolo-4-yl)-1H-imidazolo-1-yl)-1H-indol-1-yl}benzamide] |  |  | 
420 nM | 20 nM | CC(C)c1cn(-c2ccc(C(N)=O)c(NC(C)(C)C)c2)c2cccc(-n3cnc(-c4cnn(C)c4)c3)c12 [Example 52, 2-(Tert-butylamino)-4-{3-isopropyl-4-(4-(1-methyl-1H-pyrazolo-4-yl)-1H-imidazolo-1-yl)-1H-indol-1-yl}benzamide] |  |  | 
